# Source: patent EP4755892A1, “KINESIN KIF18A INHIBITOR AND USE THEREOF” (Shanghai Apeiron Therapeutics Company Limited, priority 2023, dated 2025)
# Where two headings read alike, the source gives them in different places.
# Columns and labels:
# [1] = target: T1, Human KIF18A (amino acid sequence 1-417) (Homo sapiens, UniProt Q8NI77); assay: Enzymatic Activity Test (ADP-Glo, microtubule-stimulated KIF18A ATPase); type: biochemical; settings: 60 µg/mL microtubules, 25 µM ATP, 2.5 nM KIF18A protein, 120 min at ambient temperature, chemiluminescence; read-out: KIF 18A IC50
# T1 construct: purchased Viva Biotech (Shanghai) Ltd
# T1 sequence (Q8NI77 1-417): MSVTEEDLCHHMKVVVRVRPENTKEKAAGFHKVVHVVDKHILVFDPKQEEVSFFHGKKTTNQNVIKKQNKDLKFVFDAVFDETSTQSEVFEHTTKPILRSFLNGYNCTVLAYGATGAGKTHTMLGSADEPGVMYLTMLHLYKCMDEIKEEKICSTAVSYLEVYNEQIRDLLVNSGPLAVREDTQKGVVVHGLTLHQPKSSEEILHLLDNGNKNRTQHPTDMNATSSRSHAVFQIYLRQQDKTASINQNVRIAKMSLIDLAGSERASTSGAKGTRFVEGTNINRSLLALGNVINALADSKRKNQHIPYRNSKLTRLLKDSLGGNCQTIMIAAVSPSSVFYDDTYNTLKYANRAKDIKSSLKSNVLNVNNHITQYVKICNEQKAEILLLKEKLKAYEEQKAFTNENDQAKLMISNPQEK
# [2] = system: OVCAR3 cells; assay: Cell Proliferation Activity Test (CyQUANT Direct), OVCAR3; type: cell-based; settings: compound 0-10 µM, 3 days, 0.2% DMSO, CyQUANT fluorescence, read-out: OVCAR-3 _IC50_nM
# [3] = system: HT29 cells; assay: CyQuant Cell Proliferation Activity Test, HT29; type: cell-based; settings: HT29 cells 2000 per well, initial concentration 3000 nM, 3-fold dilution, 3 days, 0.2% DMSO, read-out: HT29_IC50 _nM
IC50 [1],"IC50 ([2]; Homo sapiens, OVCAR-3, 72 h)","IC50 ([3]; Homo sapiens, HT-29, 72 h)",IC50 [2],IC50 [3],SMILES
2920 nM,> 3000 nM,> 3000 nM,–,–,"Cc1cc2nc(n1)N1CCC(F)(F)C(CCC=C3CCN(CC3)c3cc(NS(=O)(=O)CCO)ccc3C(=O)N2)C1 (stereo not drawn) [Example 20, N-(1^4,1^4-difluoro-2^6-methyl-4-oxo-3-aza-2(2,4)-pyrimidin-1(1,3),6(1,4)-dipiperidin-5(1,2)-benzeneheterocyclononane-5^4-yl)-2-hydroxyethane-1-sulfonamide]"
46 nM,–,–,12 nM,16 nM,"Cc1cc2nc(n1)N1CCC(F)(F)C(C=CCC3CCN(CC3)c3cc(NS(=O)(=O)CCO)ccc3C(=O)N2)C1 (stereo not drawn) [Example 18B, N-(1^3R,E)-1^4,1^4-difluoro-2^6-methyl-4-oxo-3-aza-2(2,4)-pyrimidin-1(1,3),6(1,4)-dip iperidin-5(1,2)-benzeneheterocyclononane-8-en-5^4-yl)-2-hydroxyethane-1-sulfonamide]"
